Test results taken from patent publication US12251447B2, “Combined formulation comprising four linked cytotoxic T lymphocyte (CTL) epitopes and a PD-1 pathway inhibitor and methods of use thereof to treat cancer” (Taiho Pharmaceutical Co., Ltd., priority 2018, dated 2025).
Ends that are not written are not given here.

Assays:
Type in all cases: in vivo, mouse
[1] = Example 6: rate of change in body weight; conditions: 18 days after cell transplantation vs Day 0
Method: (§1) Body weight was measured using an electronic balance for animals, and a rate of change in body weight (BWC) was calculated from the body weight measured on Day 0 (the day of grouping, BW0) and the body weight on 18 days after cell transplantation (BW) according to the following formula. Rate of change in body weight BWC (%)=(BW−BW0)/BW0×100
9-week-old B2 m^tm2(HLA-A24/H-2Db/B2M)Tai mice were randomly assigned to groups each involving 15 animals. The day of grouping was defined as Day 0.
This study was conducted in the same way as in Example 4 except that TPV07 or TPV08 was used instead of TPV06 as a peptide having 4 linked epitopes. TPV07 and TPV08, as in TPV06, were each prepared into 6 mg/mL using distilled water (Otsuka Pharmaceutical Factory Inc.) and then mixed with the equivalent amount of Montanide™ ISA 51 VG (SEPPIC) to prepare an emulsion, which was administered.

[2] = Example 4: rate of change in body weight; conditions: body weight 18 days after cell transplantation vs Day 0
Method: 8-week-old B2m^tm2(HLA-A24/H-2Db/B2M)Tai mice were randomly assigned to groups each involving 15 animals. The day of grouping was defined as Day 0. A 6 mg/mL peptide solution was prepared by dissolving a peptide having 4 linked epitopes TPV06 in distilled water (Otsuka Pharmaceutical Factory Inc.), and filled into the B Braun Injekt syringe (B. Braun Melsungen AG). After the equivalent amount of Montanide™ ISA 51 VG (SEPPIC) was filled into another syringe, these syringes were connected to each other via a connector, and the peptide solution was thoroughly mixed with Montanide™ ISA 51 VG to prepare an emulsion. Also, an emulsion of distilled water mixed with the equivalent amount of Montanide™ ISA 51 VG was prepared as a vehicle control. Each of these emulsions was subcutaneously administered weekly in amounts of 100 μL each in the vicinity of base of tail of each B2m^tm2(HLA-A24/H-2Db/B2M)Tai mouse, and administrations were carried out three times in total (Days 0, 7, and 14). […]
Body weight was measured using an electronic balance for animals, and a rate of change in body weight (BWC) was calculated from the body weight measured on Day 0 (the day of grouping, BW0) and the body weight on 18 days after cell transplantation (BW) according to the following formula. […]

[3] = Example 5: rate of change in body weight; conditions: 18 days after cell transplantation vs Day 0
Method: as §1
9-week-old B2m^tm2(HLA-A24/H-2Db/B2M)Tai mice were randomly assigned to groups each involving 15 animals. The day of grouping was defined as Day 0.
This study was conducted in the same way as in Example 4 except that an anti-mouse PD-L1 antibody was used instead of the anti-mouse PD-1 antibody. GoInVivo™ Purified anti-mouse CD274 (B7-H1, PD-L1) (Clone: 10F.9G2, BioLegend, Inc.) was prepared as an anti-mouse PD-L1 antibody (anti-mPD-L1 Ab) into 1 mg/mL using D-PBS (FUJIFILM Wako Pure Chemical Corp.) immediately before administration. One week after final administration of the emulsions (Day 21), the anti-mouse PD-L1 antibody was intraperitoneally administered at 200 μg/body.

Sequence | BWC (%) change in body weight [1] [%] | BWC (%) rate of change in body weight [2] [%] | BWC (%) change in body weight [3] [%]
DYSARWNEIRRQIRPIFSNRRRVYDYNCHVDLRRASLDSDPWV [TPV07, PEP5-RR-PEP9-RR-PEP6-RR-PEP2] | 18.9 |  | 
DYSARWNEIRRQIRPIFSNRRRVYDYNCHVDLRRLLQAEAPRL [TPV06, PEP5-RR-PEP9-RR-PEP6-RR-PEP4] |  | 27.0 | 21.9
DYSARWNEIRRQIRPIFSNRRRVYDYNCHVDLRRILEQSGEWWK [TPV08, PEP5-RR-PEP9-RR-PEP6-RR-PEP10] | 21.7 |  | 
